Laboratory results taken from patent US20050203100A1, “Use of an alfa2-adrenoreceptor antagonist for cns-related diseases” (priority 2002, published 2005).
Entries after “also recorded” stand apart in the source; their conditions may differ.

Experiments:
[1] = system: startle reflex and its prepulse inhibition in rats; test: Acoustic startle reactivity and prepulse inhibition (PPI) in rats; type: in vivo; details: compound given 20 min before measurement, vs vehicle, FIG. 1
Method: (§1) In order to study the effect of alpha2-antagonists on startle reflex and its prepulse-inhibition, groups of rats (n=10/group) were pre-treated with the alpha2C-antagonist or vehicle 20 min before measurement of the acoustic startle reactivity and PPI in a test system designed for startle studies (SR-LAB, San Diego Instruments, CA, USA). In a subsequent experiment the effects of the alpha2-adrenoceptor subtype selective alpha2C-antagonist and or the subtype non-selective antagonist atipamezole (Haapalinna, A. et al., Naunyn-Schmiedeberg's Arch. Pharmacol. 356 (1997) 570-582) on PCP-induced PPI-disruption was studied. The antagonists were given 20 min, and PCP or vehicle 10 min before start of the startle measurements. The method otherwise corresponds to the procedure described in Sallinen, J. et al., J. Neurosci. 18 (1998) 3035-42.

[2] = system: startle reflex and its prepulse inhibition in rats pretreated with the psychostimulant phencyclidine (PCP); test: PCP-induced PPI disruption, startle reflex and prepulse inhibition in rats pretreated with phencyclidine; type: in vivo; details: FIG. 2; for effect on PCP-disrupted prepulse inhibition (PPI): antagonist 20 min and PCP 10 min before measurement, vs vehicle+PCP
Method: as §1

CN1CCN(c2ccc(Nc3c4ccccc4nc4ccccc34)cc2)CC1 [JP-1302, acridin-9-yl-[4-(4-methylpiperazin-1-yl)-phenyl]amine]
effect on prepulse inhibition (PPI, sensorimotor gating) [1]: enhanced sensorimotor gating (prepulse inhibition %); also recorded: increased PPI dose-dependently and effectively
effect on startle reflex (startle reactivity to intense pulses without prepulses) [1]: without significantly affecting the startle reactivity; also recorded: did not affect the startle reflex per se
effect on PCP-disrupted prepulse inhibition (PPI) [2]: effectively counteracted; also recorded: especially clearly seen in the presence of PCP

c1ccc(C2(N3CCCCC3)CCCCC2)cc1 [PCP, phencyclidine]
effect of PCP on prepulse inhibition (PPI) ([2]; PCP given 10 min before measurement): clearly disrupted the PPI

CCC1(c2cnc[nH]2)Cc2ccccc2C1 [atipamezole]
effect on startle reactivity per se ([2]; PCP experiment): increased significantly the startle reactivity per se
effect on PCP-disrupted prepulse inhibition (PPI) [2]: had no effect on the PPI phenomenon
